# From ChEMBL document CHEMBL4422663, “Suppression of Tumor Growth and Metastases by Targeted Intervention in Urokinase Activity with Cyclic Peptides” (J Med Chem, 2019)
# Positions of bridges follow the written chain, without caps; N, C: chain ends. Residues, ends and D or L forms follow the SMILES beside them.
# Tests used:
# [1] = biological target: T1, Urokinase-type plasminogen activator (Homo sapiens, UniProt P00749); test: Inhibition of uPA (unknown origin)
# [2] = biological target: T2, Tissue-type plasminogen activator (Homo sapiens, UniProt P00750); test: Inhibition of tPA (unknown origin)
# T2 sequence (P00750 whole entry): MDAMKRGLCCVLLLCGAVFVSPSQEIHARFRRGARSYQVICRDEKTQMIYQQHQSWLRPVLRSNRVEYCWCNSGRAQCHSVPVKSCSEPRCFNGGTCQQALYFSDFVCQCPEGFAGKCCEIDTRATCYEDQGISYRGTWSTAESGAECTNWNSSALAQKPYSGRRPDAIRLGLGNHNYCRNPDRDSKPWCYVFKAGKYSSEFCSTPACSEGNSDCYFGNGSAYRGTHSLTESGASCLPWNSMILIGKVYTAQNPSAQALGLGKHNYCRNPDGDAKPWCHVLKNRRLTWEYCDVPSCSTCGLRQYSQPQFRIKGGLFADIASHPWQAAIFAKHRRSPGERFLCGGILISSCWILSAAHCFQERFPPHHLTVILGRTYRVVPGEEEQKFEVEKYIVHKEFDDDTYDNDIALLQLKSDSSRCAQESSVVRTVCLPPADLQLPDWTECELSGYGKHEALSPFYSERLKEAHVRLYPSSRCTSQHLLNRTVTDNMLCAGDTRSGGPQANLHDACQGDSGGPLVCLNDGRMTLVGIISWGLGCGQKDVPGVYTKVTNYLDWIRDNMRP
# [3] = biological target: Coagulation factor X (Homo sapiens, UniProt P00742); test: Inhibition of factor 10a (unknown origin)
# Coagulation factor X, sequence (P00742 41-179 limits assumed): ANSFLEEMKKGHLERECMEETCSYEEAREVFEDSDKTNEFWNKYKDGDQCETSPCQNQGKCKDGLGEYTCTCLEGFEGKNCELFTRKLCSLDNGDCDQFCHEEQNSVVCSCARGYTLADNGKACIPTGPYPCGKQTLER
# Coagulation factor X, sequence (P00742 235-488 limits assumed): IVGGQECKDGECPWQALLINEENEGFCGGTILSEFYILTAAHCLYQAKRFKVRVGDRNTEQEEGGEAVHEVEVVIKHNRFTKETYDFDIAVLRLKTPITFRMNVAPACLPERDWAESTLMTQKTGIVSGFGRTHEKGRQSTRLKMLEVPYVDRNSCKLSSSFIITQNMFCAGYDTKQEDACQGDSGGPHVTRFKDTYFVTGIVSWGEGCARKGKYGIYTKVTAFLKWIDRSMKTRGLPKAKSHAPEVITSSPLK
# [4] = Antitumor activity against rat BN472 cells implanted in Norwegian BN rat model of orthotopical breast cancer assessed as inhibition of tumor growth at 1 mg/kg/day, sc; type: functional; settings: read-out: TGI
# [5] = biological target: T3, Prothrombin (Homo sapiens, UniProt P00734); test: Inhibition of thrombin (unknown origin)
# [6] = biological target: T4, Plasminogen (Homo sapiens, UniProt P00747); test: Inhibition of plasmin (unknown origin)
# T4 sequence (P00747 97-580 limits assumed): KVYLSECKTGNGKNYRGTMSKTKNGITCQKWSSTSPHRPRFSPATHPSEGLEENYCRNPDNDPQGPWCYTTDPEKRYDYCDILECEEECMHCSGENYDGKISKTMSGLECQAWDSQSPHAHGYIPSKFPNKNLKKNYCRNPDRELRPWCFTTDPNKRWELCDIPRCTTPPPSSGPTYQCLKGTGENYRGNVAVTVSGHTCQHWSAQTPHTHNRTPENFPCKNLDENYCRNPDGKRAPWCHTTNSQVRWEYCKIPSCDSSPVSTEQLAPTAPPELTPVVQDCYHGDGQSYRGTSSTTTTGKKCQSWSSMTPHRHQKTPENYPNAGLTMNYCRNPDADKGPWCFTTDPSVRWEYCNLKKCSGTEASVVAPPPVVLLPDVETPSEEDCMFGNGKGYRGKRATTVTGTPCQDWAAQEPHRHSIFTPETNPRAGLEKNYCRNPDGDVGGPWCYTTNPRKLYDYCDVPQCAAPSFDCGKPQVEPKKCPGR
# T4 sequence (P00747 581-810 limits assumed): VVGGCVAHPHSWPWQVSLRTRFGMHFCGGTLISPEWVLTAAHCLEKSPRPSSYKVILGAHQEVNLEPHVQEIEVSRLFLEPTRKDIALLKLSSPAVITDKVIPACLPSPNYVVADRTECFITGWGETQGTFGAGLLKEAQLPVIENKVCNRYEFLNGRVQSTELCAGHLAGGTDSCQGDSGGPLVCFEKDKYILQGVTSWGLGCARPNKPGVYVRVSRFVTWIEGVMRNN
# [7] = biological target: Plasminogen (Mus musculus, UniProt P20918); test: Inhibition of mouse plasmin preincubated for 15 mins followed by chromogenic substrate addition
# Plasminogen (Mus musculus, UniProt P20918), sequence (P20918 98-581 limits assumed): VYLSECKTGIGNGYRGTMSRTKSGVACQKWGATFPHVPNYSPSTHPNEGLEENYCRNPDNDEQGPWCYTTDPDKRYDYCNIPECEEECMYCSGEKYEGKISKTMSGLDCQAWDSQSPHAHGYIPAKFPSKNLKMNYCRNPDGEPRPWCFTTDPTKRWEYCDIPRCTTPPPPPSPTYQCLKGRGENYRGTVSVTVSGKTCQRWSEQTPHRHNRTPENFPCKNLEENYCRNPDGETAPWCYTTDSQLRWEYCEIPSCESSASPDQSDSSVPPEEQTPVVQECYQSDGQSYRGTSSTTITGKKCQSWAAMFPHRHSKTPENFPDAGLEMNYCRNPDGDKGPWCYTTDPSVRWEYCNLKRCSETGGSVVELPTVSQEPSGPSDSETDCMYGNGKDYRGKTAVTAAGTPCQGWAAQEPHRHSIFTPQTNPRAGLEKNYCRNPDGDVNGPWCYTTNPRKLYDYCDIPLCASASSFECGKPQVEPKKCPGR
# Plasminogen (Mus musculus, UniProt P20918), sequence (P20918 582-812 limits assumed): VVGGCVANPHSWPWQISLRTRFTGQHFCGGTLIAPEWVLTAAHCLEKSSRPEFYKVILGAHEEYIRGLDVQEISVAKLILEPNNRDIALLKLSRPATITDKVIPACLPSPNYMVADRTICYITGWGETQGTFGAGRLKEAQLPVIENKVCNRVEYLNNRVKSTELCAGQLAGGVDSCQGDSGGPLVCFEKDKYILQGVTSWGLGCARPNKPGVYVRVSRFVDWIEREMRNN
# [8] = biological target: T5, Urokinase-type plasminogen activator (Mus musculus, UniProt P06869); test: Inhibition of mouse uPA preincubated for 15 mins followed by chromogenic substrate addition
# T5 sequence (P06869 21-178 limits assumed): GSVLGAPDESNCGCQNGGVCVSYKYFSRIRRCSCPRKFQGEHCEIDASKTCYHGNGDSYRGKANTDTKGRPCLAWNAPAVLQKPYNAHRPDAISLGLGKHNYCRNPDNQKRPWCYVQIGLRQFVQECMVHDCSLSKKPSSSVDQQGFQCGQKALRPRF
# T5 sequence (P06869 180-433 limits assumed): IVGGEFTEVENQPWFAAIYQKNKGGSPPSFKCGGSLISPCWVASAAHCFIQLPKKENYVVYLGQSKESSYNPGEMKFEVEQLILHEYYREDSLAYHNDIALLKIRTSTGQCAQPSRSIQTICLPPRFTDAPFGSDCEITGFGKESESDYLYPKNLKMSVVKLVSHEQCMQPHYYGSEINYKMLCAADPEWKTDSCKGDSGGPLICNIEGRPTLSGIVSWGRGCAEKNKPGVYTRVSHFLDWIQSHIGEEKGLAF
# [9] = biological target: T1, Urokinase-type plasminogen activator; test: Inhibition of human uPA preincubated for 15 mins followed by chromogenic substrate addition
# [10] = biological target: Plasma kallikrein (Mus musculus, UniProt P26262); test: Inhibition of mouse plasma kallikrein preincubated for 15 mins followed by chromogenic substrate addition
# Plasma kallikrein (Mus musculus, UniProt P26262), sequence (P26262 20-390 limits assumed): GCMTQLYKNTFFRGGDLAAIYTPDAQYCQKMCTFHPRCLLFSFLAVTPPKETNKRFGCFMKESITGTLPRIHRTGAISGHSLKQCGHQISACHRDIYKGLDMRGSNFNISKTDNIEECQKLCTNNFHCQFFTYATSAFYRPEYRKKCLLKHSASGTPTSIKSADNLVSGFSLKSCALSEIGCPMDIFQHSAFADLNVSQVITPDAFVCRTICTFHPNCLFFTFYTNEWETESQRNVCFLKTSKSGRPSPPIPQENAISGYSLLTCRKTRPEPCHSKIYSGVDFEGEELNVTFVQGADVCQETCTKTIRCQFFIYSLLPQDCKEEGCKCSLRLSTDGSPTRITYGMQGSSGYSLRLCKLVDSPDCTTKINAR
# Plasma kallikrein (Mus musculus, UniProt P26262), sequence (P26262 391-638 limits assumed): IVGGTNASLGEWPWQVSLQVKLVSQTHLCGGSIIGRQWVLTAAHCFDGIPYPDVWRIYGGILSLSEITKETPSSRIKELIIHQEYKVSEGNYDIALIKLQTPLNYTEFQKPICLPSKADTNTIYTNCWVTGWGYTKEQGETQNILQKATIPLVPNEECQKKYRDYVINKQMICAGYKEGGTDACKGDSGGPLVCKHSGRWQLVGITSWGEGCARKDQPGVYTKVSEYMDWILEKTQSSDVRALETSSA
# [11] = biological target: T2, Tissue-type plasminogen activator; test: Inhibition of human tissue-type plasminogen activator preincubated for 15 mins followed by chromogenic substrate addition
# [12] = biological target: T5, Urokinase-type plasminogen activator; test: Inhibition of mouse uPA serine protease domain preincubated for 15 mins followed by chromogenic substrate addition
# [13] = test system: CT26; test: Cytotoxicity against mouse CT26 cells at 100 uM; type: cell-based; settings: ct26, 100 µM
# [14] = biological target: Urokinase-type plasminogen activator (Mus musculus) (UniProt P06869); test: Binding affinity to mouse uPA assessed as dissociation rate constant after 600 secs by SPR assay
# Urokinase-type plasminogen activator (Mus musculus), sequence (P06869 21-178 limits assumed): as the sequence (P06869 21-178 limits assumed) above
# Urokinase-type plasminogen activator (Mus musculus), sequence (P06869 180-433 limits assumed): as the sequence (P06869 180-433 limits assumed) above
# [15] = biological target: T5, Urokinase-type plasminogen activator; test: Binding affinity to mouse uPA by SPR assay
# [16] = biological target: Coagulation factor XI (Homo sapiens, UniProt P03951); test: Inhibition of human factor 11a preincubated for 15 mins followed by chromogenic substrate addition
# [17] = biological target: Plasma kallikrein (Homo sapiens, UniProt P03952); test: Inhibition of human plasma kallikrein preincubated for 15 mins followed by chromogenic substrate addition
# Plasma kallikrein (Homo sapiens, UniProt P03952), sequence (P03952 20-390 limits assumed): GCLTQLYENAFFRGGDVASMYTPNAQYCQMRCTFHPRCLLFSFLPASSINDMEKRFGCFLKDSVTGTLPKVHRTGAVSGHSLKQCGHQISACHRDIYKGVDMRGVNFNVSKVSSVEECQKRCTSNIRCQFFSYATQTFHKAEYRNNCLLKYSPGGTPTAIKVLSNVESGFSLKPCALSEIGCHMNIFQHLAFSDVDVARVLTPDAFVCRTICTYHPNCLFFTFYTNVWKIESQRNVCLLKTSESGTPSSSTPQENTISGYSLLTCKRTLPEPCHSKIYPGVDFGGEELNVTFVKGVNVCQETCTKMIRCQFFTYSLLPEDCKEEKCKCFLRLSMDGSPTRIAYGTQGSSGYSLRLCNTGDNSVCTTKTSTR
# Plasma kallikrein (Homo sapiens, UniProt P03952), sequence (P03952 391-638 limits assumed): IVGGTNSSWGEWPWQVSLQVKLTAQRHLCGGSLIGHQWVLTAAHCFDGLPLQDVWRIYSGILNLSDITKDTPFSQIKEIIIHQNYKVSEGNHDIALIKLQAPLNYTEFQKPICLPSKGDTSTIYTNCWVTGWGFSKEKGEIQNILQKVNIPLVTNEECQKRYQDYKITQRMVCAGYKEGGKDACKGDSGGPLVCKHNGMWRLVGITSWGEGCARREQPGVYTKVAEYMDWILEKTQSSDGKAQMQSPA
# [18] = biological target: Urokinase-type plasminogen activator (Mus musculus) (UniProt P06869); test: Inhibition of the intrinsic peri-cellular uPA in mouse CT26 cells assessed as reduction in cell migration at 30 to 100 uM measured every hour by wound healing assay relative to control; type: cell-based
# [19] = biological target: T4, Plasminogen; test: Inhibition of human plasmin preincubated for 15 mins followed by chromogenic substrate addition
# [20] = biological target: T3, Prothrombin; test: Inhibition of human thrombin preincubated for 15 mins followed by chromogenic substrate addition
# [21] = biological target: Tissue-type plasminogen activator (Mus musculus, UniProt P11214); test: Inhibition of mouse tissue-type plasminogen activator preincubated for 15 mins followed by chromogenic substrate addition
# [22] = biological target: T5, Urokinase-type plasminogen activator; test: Binding affinity to mouse uPA expressed in HEK2936E cells by ITC assay
# [23] = Inhibition of mouse trypsin preincubated for 15 mins followed by chromogenic substrate addition
# [24] = biological target: T6, Suppressor of tumorigenicity 14 protein (Homo sapiens, UniProt Q9Y5Y6); test: Inhibition of human matriptase preincubated for 15 mins followed by chromogenic substrate addition
# T6 sequence (Q9Y5Y6 whole entry): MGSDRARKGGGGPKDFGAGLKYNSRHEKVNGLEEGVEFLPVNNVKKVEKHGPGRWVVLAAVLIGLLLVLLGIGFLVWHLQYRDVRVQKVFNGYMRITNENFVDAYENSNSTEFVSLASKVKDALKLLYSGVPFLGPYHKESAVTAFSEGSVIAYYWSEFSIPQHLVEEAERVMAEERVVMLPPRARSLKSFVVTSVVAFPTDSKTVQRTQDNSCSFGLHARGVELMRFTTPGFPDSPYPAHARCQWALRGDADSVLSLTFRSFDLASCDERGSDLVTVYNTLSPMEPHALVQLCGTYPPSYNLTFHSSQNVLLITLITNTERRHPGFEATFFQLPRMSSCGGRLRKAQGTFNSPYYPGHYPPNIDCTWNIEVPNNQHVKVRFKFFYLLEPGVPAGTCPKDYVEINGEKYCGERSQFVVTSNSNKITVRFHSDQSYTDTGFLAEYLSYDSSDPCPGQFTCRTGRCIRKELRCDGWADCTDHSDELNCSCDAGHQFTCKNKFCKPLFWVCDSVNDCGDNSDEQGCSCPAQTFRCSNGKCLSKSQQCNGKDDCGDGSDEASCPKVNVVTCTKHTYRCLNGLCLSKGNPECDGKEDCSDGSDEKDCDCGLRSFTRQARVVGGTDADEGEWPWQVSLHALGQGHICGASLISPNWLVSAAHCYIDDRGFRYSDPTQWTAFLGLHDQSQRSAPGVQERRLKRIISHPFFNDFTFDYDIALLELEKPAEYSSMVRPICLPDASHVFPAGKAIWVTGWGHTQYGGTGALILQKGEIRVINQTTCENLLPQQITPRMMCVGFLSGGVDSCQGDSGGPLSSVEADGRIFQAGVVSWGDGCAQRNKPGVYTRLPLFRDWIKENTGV
# [25] = biological target: T5, Urokinase-type plasminogen activator; test: Inhibition of mouse uPA
# [26] = biological target: Vitamin K-dependent protein C (Homo sapiens, UniProt P04070); test: Inhibition of human activated protein C preincubated for 15 mins followed by chromogenic substrate addition
# Vitamin K-dependent protein C, sequence (P04070 43-197 limits assumed): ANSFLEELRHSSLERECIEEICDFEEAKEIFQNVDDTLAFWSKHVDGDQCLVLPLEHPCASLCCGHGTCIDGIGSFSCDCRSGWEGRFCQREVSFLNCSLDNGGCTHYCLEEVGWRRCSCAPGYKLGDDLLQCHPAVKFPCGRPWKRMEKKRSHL
# Vitamin K-dependent protein C, sequence (P04070 212-461 limits assumed): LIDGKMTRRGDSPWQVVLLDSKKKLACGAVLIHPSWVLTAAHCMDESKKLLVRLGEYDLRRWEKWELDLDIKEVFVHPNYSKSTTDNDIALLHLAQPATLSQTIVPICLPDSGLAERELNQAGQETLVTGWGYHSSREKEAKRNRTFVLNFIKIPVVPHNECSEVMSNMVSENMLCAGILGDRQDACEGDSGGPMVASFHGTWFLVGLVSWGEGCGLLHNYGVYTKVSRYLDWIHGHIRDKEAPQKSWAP
# [27] = biological target: Urokinase-type plasminogen activator (Mus musculus) (UniProt P06869); test: Inhibition of the intrinsic peri-cellular uPA in mouse CT26 cells assessed as reduction in cell invasion at 33 to 100 uM by Transwell invasion assay relative to control
# [28] = biological target: Prothrombin (Mus musculus, UniProt P19221); test: Inhibition of mouse thrombin preincubated for 15 mins followed by chromogenic substrate addition
compound,measurement,setting,value
CCOC(=O)N1CCN(C(=O)[C@H](Cc2cccc(C(=N)N)c2)NS(=O)(=O)c2c(C(C)C)cc(C(C)C)cc2C(C)C)CC1,Ki,[1],0.65 µM
same,Ki,[2],2.51 µM
same,Ki,[3],0.98 µM
same,inhibition in vivo at 1 mg/kg/day,[4],53%
same,Ki,[5],0.5 µM
same,Ki,[6],1.46 µM
CC[C@H](C)[C@@H]1NC(=O)[C@H](Cc2ccc(O)cc2)NC(=O)[C@H](CCCNC(=N)N)NC(=O)[C@H](CO)NC(=O)[C@H](Cc2ccc(O)cc2)NC(=O)[C@H](C)NC(=O)[C@@H]2CCCN2C(=O)[C@@H](NC(C)=O)CSSC[C@@H](C(N)=O)NC(=O)CNC1=O (Ac-CPAYSRYIGC-NH2; disulfide 1-10),Ki,[7],> 25 µM
same,Ki,[8],0.02 µM
same,Ki,[9],0.903 µM
same,Ki,[10],> 25 µM
same,Ki,[11],> 25 µM
same,Ki,[12],0.246 µM
same,Activity,[13],Non-Toxic
same,K,[14],0.0064 s⁻¹
same,Kd,[15],0.0147 µM
same,Ki,[16],> 25 µM
same,Ki,[17],> 25 µM
same,inhibition,[18],30%
same,Ki,[19],> 25 µM
same,Ki,[20],> 25 µM
same,Ki,[21],> 25 µM
same,Kd,[22],0.0421 µM
same,Ki,[23],1.6 µM
same,Ki,[24],> 25 µM
same,Ki,[25],0.02 µM
same,Ki,[26],> 25 µM
same,inhibition,[27],70 to 80%
same,Ki,[28],> 25 µM
